# Results taken from patent US6951840B2, “Lipoglycopeptide antibiotics” (priority 2001, dated 2005).
# System: Haemophilus influenzae ATCC 49247
# Test: Broth micro-dilution MIC, H. influenzae ATCC 49247
# Assay type: cell-based
# Settings: ATCC49247, read-out: MIC, H. influenzae ATCC49247
# Experimental: (§1) The in vitro antibacterial activity of lipoglycopeptides 1, 2, 5, 6, 7, and 8 is determined according to the National Committee for Clinical Laboratory Standards (NCCLS) recommendations for broth micro-dilution assay using 2xsTH (Todd Hewitt broth), MHII (cation adjusted Mueller Hinton broth) or HTM medium (Haemophilus Test Medium) (Gerhardt, P., et al., (1994) Methods for General and Molecular Bacteriology. American Society for Microbiology, Washington, D.C.). Bacterial strains used for antibacterial assay include both gram-positive and gram-negative bacteria: S. pneumoniae R6, Staphylococcus aureus SA027, Haemophilus influenzae ATCC 49247, E. coli EL683 and EL744. A two-fold serial dilution of the test compound is prepared in 100% DMSO. The assay is performed in the wells of a sterile 96-well microplate, that is inoculated with bacterial cell suspension in growth medium or broth as above. The final volume is 100 μl cell suspension, containing 2.5% DMSO. The starting concentration of bacterial cells is 5×10^5 CFU/ml. The 96-well microplate is incubated for 23-24 hr at 37° C. in an ambient air incubator. Upon completion of incubation, the MIC (minimal inhibitory concentration) is determined by visual examination of the microplate with the aid of a magnifying mirror apparatus. The MIC is the lowest concentration of compound tested that results in no visible sign of bacterial growth.
row,SMILES,MIC
1,CC(C)CCCCCCCCCCC(=O)N(C)C(CO)C(=O)NC(C)C(=O)NCC(=O)N(C)C1C(=O)NC(C)C(=O)NC(C(=O)O)Cc2ccc(O)c(c2)-c2cc1ccc2OC1OC(C)C(O)C(O)C1O (stereo not drawn) [Compound 7],> 64 µg/mL
2,CC(C)CCCCCCCCCCC(=O)N(C)C(CO)C(=O)NC(C)C(=O)NCC(=O)N(C)C1C(=O)NC(C)C(=O)NC(C(=O)O)Cc2ccc(O)c(c2)-c2cc1cc(O)c2OC1OC(C)C(O)C(O)C1O (stereo not drawn) [Compound 8],> 64 µg/mL

# System: S. pneumoniae R6
# Test: Broth micro-dilution MIC, S. pneumoniae R6
# Assay type: cell-based
# Settings: Streptococcus pneumoniae, R6, 2XsTH broth, 23-24 hr at 37° C.
# Experimental: as §1
row,SMILES,MIC
1,CC(C)CCCCCCCCCCC(=O)N(C)C(CO)C(=O)NC(C)C(=O)NCC(=O)N(C)C1C(=O)NC(C)C(=O)NC(C(=O)O)Cc2ccc(O)c(c2)-c2cc1ccc2OC1OC(C)C(O)C(O)C1O (stereo not drawn) [Compound 7],> 64 µg/mL
2,CC(C)CCCCCCCCCCC(=O)N(C)C(CO)C(=O)NC(C)C(=O)NCC(=O)N(C)C1C(=O)NC(C)C(=O)NC(C(=O)O)Cc2ccc(O)c(c2)-c2cc1cc(O)c2OC1OC(C)C(O)C(O)C1O (stereo not drawn) [Compound 8],> 64 µg/mL

# Molecular target: T1, E. coli SPase I (Escherichia coli, UniProt P00803, I81L)
# T1 construct: His-tag (inferred from vector pET15b cloned at NdeI/XhoI and Ni-NTA purification); made in house; host or cells: E. coli BL21(DE3)
# Test: Kinetic analysis by HPLC assay with non-fluorogenic peptide substrate
# Assay type: biochemical
# Settings: not given
# Experimental: A kinetic analysis is performed with E. coli SPase I and the non-fluorogenic peptide substrate by HPLC assay as described in Peng, et al. (2001) J. Bacterol. 183, 621-627. 50 μl of reaction volume contains 50 nM E. coli SPase I with different concentrations of substrate and lipoglycopepetide inhibitors. The reaction mixtures are incubated at room temperature for 30 mins., and terminated by the addition of an equal amount of 8 M urea. The final concentration of DMSO in the reaction mixtures is 2%. Substrate cleavage is analyzed by HPLC as described in Peng, et al. (2001) J. Bacterol. 183, 621-627. The initial rate, K1, and inhibition type of the inhibitor is calculated with Sigma Plot 2000, Version 6.2 with enzyme kinetics module (SPSS, Inc., Cat No. 3703564).
row,SMILES,Ki
1,CC(C)CCCCCCCCCCC(=O)N(C)C(CO)C(=O)NC(C)C(=O)NCC(=O)N(C)C1C(=O)NC(C)C(=O)NC(C(=O)O)Cc2ccc(O)c(c2)-c2cc1ccc2OC1OC(C)C(O)C(O)C1O (stereo not drawn) [Compound 7],50.4 nM
2,CC(C)CCCCCCCCCCC(=O)N(C)C(CO)C(=O)NC(C)C(=O)NCC(=O)N(C)C1C(=O)NC(C)C(=O)NC(C(=O)O)Cc2ccc(O)c(c2)-c2cc1cc(O)c2OC1OC(C)C(O)C(O)C1O (stereo not drawn) [Compound 8],110 nM

# Molecular target: T2, S. pneumoniae SPase I (Streptococcus pneumoniae serotype 4, UniProt O07344)
# T2 construct: made in house
# Test: Fluorimetric IC50 determination, S. pneumoniae signal peptidase
# Assay type: biochemical
# Settings: 50 nM SPase I, 50 μM fluorogenic substrate, 37° C., 1-2 hrs
# Experimental: Procedures for cloning, expression and purification of S. pneumoniae Spase can be found in reference (Peng, et al. (2001) J. Bacterol. 183, 621-627).
# (§2) “IC50” refers to the concentration of inhibitor required to achieve a half-maximal degree of inhibition of SPase I. The IC50 is determined by a fluorimetric assay as described in Peng, et al. (2001) J. Bacterol. 183, 621-627, with a fluorogenic peptide used as substrate as described therein. The reaction is performed in 50 μls of reaction mixture containing 50 nM of either E. coli or S. pneumoniae SPase I, 50 μM substrate, and a series dilution of inhibitor. Inhibitors are dissolved in dimethylsulfoxide (DMSO). Compounds in DMSO are diluted in reaction buffer. The final DMSO concentration in the reaction mixtures is 2% (v/v). Reaction mixtures are incubated at 37° C. for 1-2 hrs. The IC50 is calculated using a nonlinear regression method with GraphPad Prism™ Software (GraphPad G3-A13127-507). The inhibitory activity of lipoglycopeptides 1-8 against both E. coli and S. pneumoniae signal peptidases, are summarized in Table 7.
# T2 sequence (O07344 whole entry): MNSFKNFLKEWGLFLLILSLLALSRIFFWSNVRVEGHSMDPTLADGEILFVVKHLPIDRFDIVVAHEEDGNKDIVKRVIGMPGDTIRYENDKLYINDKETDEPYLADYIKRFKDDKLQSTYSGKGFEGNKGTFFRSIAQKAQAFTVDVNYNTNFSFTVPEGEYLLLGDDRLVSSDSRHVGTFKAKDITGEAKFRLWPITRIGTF
row,SMILES,IC50
1,CC(C)CCCCCCCCCCCC(=O)N(C)C(CO)C(=O)NC(C)C(=O)NCC(=O)N(C)C1C(=O)NC(C)C(=O)NC(C(=O)O)Cc2ccc(O)c(c2)-c2cc1ccc2OC1OC(C)C(O)C(O)C1O (stereo not drawn) [Compound 3],7000 nM
2,CCCCCCCCCCCCCCC(=O)N(C)C(CO)C(=O)NC(C)C(=O)NCC(=O)N(C)C1C(=O)NC(C)C(=O)NC(C(=O)O)Cc2ccc(O)c(c2)-c2cc1ccc2OC1OC(C)C(O)C(O)C1O (stereo not drawn) [Compound 4],5900 nM
3,CC(C)CCCCCCCCCCC(=O)N(C)C(CO)C(=O)NC(C)C(=O)NCC(=O)N(C)C1C(=O)NC(C)C(=O)NC(C(=O)O)Cc2ccc(O)c(c2)-c2cc1ccc2OC1OC(C)C(O)C(O)C1O (stereo not drawn) [Compound 7],6100 nM
4,CC(C)CCCCCCCCCCC(=O)N(C)C(CO)C(=O)NC(C)C(=O)NCC(=O)N(C)C1C(=O)NC(C)C(=O)NC(C(=O)O)Cc2ccc(O)c(c2)-c2cc1cc(O)c2OC1OC(C)C(O)C(O)C1O (stereo not drawn) [Compound 8],24900 nM

# Molecular target: T1, E. coli SPase I
# Test: Fluorimetric IC50 determination, E. coli signal peptidase
# Assay type: biochemical
# Settings: not given
# Experimental: Cloning and expression of the E. coli SPase I gene is performed by polymerase chain reaction (PCR) using E. coli genomic DNA as a template and two oligonucleotides as primers: 5′-[…]-3′ (SEQ ID NO: 1) and 5′-[…]-3′ (SEQ ID NO:2). The primers are designed to contain NdeI and XhoI restriction sites at the 5′-ends, respectively, to enable cloning into the bacterial expression vector pET15b (Novagen). The primers are synthesized based upon the published sequence of E. coli SPase I (Wolfe, et al. (1983) J. Biol. Chem. 258, 12073-12080).
# Expression vector pET15b-E. coli SPase is constructed by replacing the NdeI/XhoI fragment of pET15b with the PCR fragment that is purified and digested with Ndel and XhoI. The identity of the cloned gene is confirmed by DNA sequencing. For expression of E. coli SPase I, E. coli strain BL21(DE3)(Stratagene) is transformed with pET15b-E. coli SPase, and grown and induced with 0.4 mM IPTG (isopropryl-1-thio-β-D-galactopyranoside) as described in Studier, et al. (1990) Methods Enzymol. 185, 60-89.
# For purification of E. coli SPase T, one liter of IPTG-induced E. coli BL21(DE3) cells harboring pET15b-E coli SPase is harvested by centrifugation and re-suspended in 50 ml of lysis buffer containing 50 mM Na2HPO4, 300 mM NaCl, pH 8.0, and sonicated 5 min. on ice. The lysate is then centrifuged at 50,000 g for 1 hr at 4° C. The resultant supernatant is discarded, the pellet is re-suspended, and sonicated for 5 min. in 20 ml of lysis buffer containing 8 M urea. After centrifugation at 50,000 g for 1 hr at 4° C., the supernatant is loaded onto a 5 ml column of pre-equilibrated Ni-nitrilotriacetic acid (NTA) that is then washed with 120 ml of refolding buffer (50 mM NaH2PO4, 300 mM NaCl, 15 mM imidazole) containing a continuous urea gradient from 6 to 1 M with a flow rate of 1 ml/min. The protein is eluted with 20 ml of elution buffer (20 mM Tris-HCl, pH 8.0, 20% glycerol, 1 M urea and 100 mM imidazole), and 1 ml fractions are collected and utilized for enzyme assay.
# Target sequence in this assay (P00803 77-324 I81L): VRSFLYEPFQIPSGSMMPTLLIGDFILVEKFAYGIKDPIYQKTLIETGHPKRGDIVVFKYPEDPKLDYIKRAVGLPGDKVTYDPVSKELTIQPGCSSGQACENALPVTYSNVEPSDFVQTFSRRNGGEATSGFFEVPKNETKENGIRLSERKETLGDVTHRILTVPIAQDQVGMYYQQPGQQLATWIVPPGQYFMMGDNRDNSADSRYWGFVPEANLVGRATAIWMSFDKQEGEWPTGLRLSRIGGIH
# as §2
row,SMILES,IC50
1,CC(C)CCCCCCCCCCCC(=O)N(C)C(CO)C(=O)NC(C)C(=O)NCC(=O)N(C)C1C(=O)NC(C)C(=O)NC(C(=O)O)Cc2ccc(O)c(c2)-c2cc1ccc2OC1OC(C)C(O)C(O)C1O (stereo not drawn) [Compound 3],130 nM
2,CCCCCCCCCCCCCCC(=O)N(C)C(CO)C(=O)NC(C)C(=O)NCC(=O)N(C)C1C(=O)NC(C)C(=O)NC(C(=O)O)Cc2ccc(O)c(c2)-c2cc1ccc2OC1OC(C)C(O)C(O)C1O (stereo not drawn) [Compound 4],130 nM
3,CC(C)CCCCCCCCCCC(=O)N(C)C(CO)C(=O)NC(C)C(=O)NCC(=O)N(C)C1C(=O)NC(C)C(=O)NC(C(=O)O)Cc2ccc(O)c(c2)-c2cc1ccc2OC1OC(C)C(O)C(O)C1O (stereo not drawn) [Compound 7],110 nM
4,CC(C)CCCCCCCCCCC(=O)N(C)C(CO)C(=O)NC(C)C(=O)NCC(=O)N(C)C1C(=O)NC(C)C(=O)NC(C(=O)O)Cc2ccc(O)c(c2)-c2cc1cc(O)c2OC1OC(C)C(O)C(O)C1O (stereo not drawn) [Compound 8],110 nM

# System: E. coli EL744
# Test: Broth micro-dilution MIC, E. coli EL744
# Assay type: cell-based
# Settings: Escherichia coli, MHII broth, 23-24 hr at 37° C.
# Experimental: as §1
row,SMILES,MIC
1,CC(C)CCCCCCCCCCC(=O)N(C)C(CO)C(=O)NC(C)C(=O)NCC(=O)N(C)C1C(=O)NC(C)C(=O)NC(C(=O)O)Cc2ccc(O)c(c2)-c2cc1ccc2OC1OC(C)C(O)C(O)C1O (stereo not drawn) [Compound 7],16 µg/mL
2,CC(C)CCCCCCCCCCC(=O)N(C)C(CO)C(=O)NC(C)C(=O)NCC(=O)N(C)C1C(=O)NC(C)C(=O)NC(C(=O)O)Cc2ccc(O)c(c2)-c2cc1cc(O)c2OC1OC(C)C(O)C(O)C1O (stereo not drawn) [Compound 8],8 µg/mL

# System: Staphylococcus aureus SA027
# Test: Broth micro-dilution MIC, S. aureus SA027
# Assay type: cell-based
# Settings: MHII broth, 23-24 hr at 37° C.
# Experimental: as §1
row,SMILES,MIC
1,CC(C)CCCCCCCCCCC(=O)N(C)C(CO)C(=O)NC(C)C(=O)NCC(=O)N(C)C1C(=O)NC(C)C(=O)NC(C(=O)O)Cc2ccc(O)c(c2)-c2cc1ccc2OC1OC(C)C(O)C(O)C1O (stereo not drawn) [Compound 7],> 64 µg/mL
2,CC(C)CCCCCCCCCCC(=O)N(C)C(CO)C(=O)NC(C)C(=O)NCC(=O)N(C)C1C(=O)NC(C)C(=O)NC(C(=O)O)Cc2ccc(O)c(c2)-c2cc1cc(O)c2OC1OC(C)C(O)C(O)C1O (stereo not drawn) [Compound 8],> 64 µg/mL
